Reference: ChEMBL document CHEMBL1201862, “PubChem BioAssay data set” (2004)
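Compound exposure: 48 hours, 5 concentrations, 96-well plates. GI50: concentration for 50% inhibition of growth.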 The source made the active and inactive calls. Cut-off read from the data, not from the text of the source: active = GI50 up to about 1.1 µM and inactive = higher.

Tests used:
Assay in all cases: NCI-60 cell line screen, 48 h
KM12 = test system: KM12
786-0 = test system: 786-0
NCI-H460 = test system: NCI-H460
LOX IMVI = test system: LOX IMVI
KM-20L2 = test system: KM-20L2
HT-29 = test system: HT-29
TK-10 = test system: TK-10
U-251 = test system: U-251
SF-539 = test system: SF-539
SK-MEL-2 = test system: SK-MEL-2
SW-620 = test system: SW-620
A549 = test system: A549
DLD-1 = test system: DLD-1
NCI-H23 = test system: NCI-H23
HOP-62 = test system: HOP-62
SF-268 = test system: SF-268
SK-OV-3 = test system: SK-OV-3
UACC-62 = test system: UACC-62
SK-MEL-28 = test system: SK-MEL-28
M19-MEL = test system: M19-MEL
COLO 205 = test system: COLO 205
HCC 2998 = test system: HCC 2998
MOLT-4 = test system: MOLT-4
OVCAR-3 = test system: OVCAR-3
DMS-114 = test system: DMS-114
OVCAR-5 = test system: OVCAR-5
CAKI-1 = test system: CAKI-1
UO-31 = test system: UO-31
DMS-273 = test system: DMS-273
A498 = test system: A498
SF-295 = test system: SF-295
SNB-19 = test system: SNB-19
EKVX = test system: EKVX
M14 = test system: M14
HOP-18 = test system: HOP-18
SK-MEL-5 = test system: SK-MEL-5
Malme-3M = test system: Malme-3M
IGROV-1 = test system: IGROV-1
HCT-15 = test system: HCT-15
ACHN = test system: ACHN
K562 = test system: K562
HL-60 = test system: HL-60
NCI-H226 = test system: NCI-H226
RPMI-8226 = test system: RPMI-8226
SNB-78 = test system: SNB-78
HOP-92 = test system: HOP-92
OVCAR-4 = test system: OVCAR-4
CCRF-CEM = test system: CCRF-CEM
UACC-257 = test system: UACC-257
NCI-H522 = test system: NCI-H522
XF498 = test system: XF498
LXFL 529 = test system: LXFL 529
SR = test system: SR
SN12C = test system: SN12C
HCT-116 = test system: HCT-116
RXF 393 = test system: RXF 393
OVCAR-8 = test system: OVCAR-8
SNB-75 = test system: SNB-75

CC1=CC(C)(C)N=C2SC(c3ccc(Cl)cc3)=NN12
GI50 (KM12): 26 µM (inactive)
GI50 (786-0): 15.1 µM (inactive)
GI50 (NCI-H460): 29.2 µM (inactive)
GI50 (LOX IMVI): 40.1 µM (inactive)
GI50 (KM-20L2): 22.5 µM (inactive)
GI50 (HT-29): 12 µM (inactive)
GI50 (TK-10): 37 µM (inactive)
GI50 (U-251): 23 µM (inactive)
GI50 (SF-539): 31.6 µM (inactive)
GI50 (SK-MEL-2): 43.6 µM (inactive)
GI50 (SW-620): 32.1 µM (inactive)
GI50 (A549): 40 µM (inactive)
GI50 (DLD-1): 19.5 µM (inactive)
GI50 (NCI-H23): 15.5 µM (inactive)
GI50 (HOP-62): 54.3 µM (inactive)
GI50 (SF-268): 27.5 µM (inactive)
GI50 (SK-OV-3): 46.2 µM (inactive)
GI50 (UACC-62): 59.6 µM (inactive)
GI50 (SK-MEL-28): 36.4 µM (inactive)
GI50 (M19-MEL): 32 µM (inactive)
GI50 (COLO 205): 41.1 µM (inactive)
GI50 (HCC 2998): 25.6 µM (inactive)
GI50 (MOLT-4): 14.9 µM (inactive)
GI50 (OVCAR-3): 18.1 µM (inactive)
GI50 (DMS-114): 23.5 µM (inactive)
GI50 (OVCAR-5): 17.6 µM (inactive)
GI50 (CAKI-1): 27.9 µM (inactive)
GI50 (UO-31): 19.8 µM (inactive)
GI50 (DMS-273): 38 µM (inactive)
GI50 (A498): 25.8 µM (inactive)
GI50 (SF-295): 31.2 µM (inactive)
GI50 (SNB-19): 50.1 µM (inactive)
GI50 (EKVX): 3.85 µM (inactive)
GI50 (M14): 30.5 µM (inactive)
GI50 (HOP-18): 21 µM (inactive)
GI50 (SK-MEL-5): 15.5 µM (inactive)
GI50 (Malme-3M): 24.9 µM (inactive)
GI50 (IGROV-1): > 100 µM (inactive)
GI50 (HCT-15): 25.4 µM
GI50 (ACHN): 27.9 µM (inactive)
GI50 (K562): 21.4 µM (inactive)
GI50 (HL-60): 12.2 µM (inactive)
GI50 (NCI-H226): 21.1 µM (inactive)
GI50 (RPMI-8226): 12.1 µM (inactive)
GI50 (SNB-78): 59.2 µM (inactive)
GI50 (HOP-92): 27.4 µM (inactive)
GI50 (OVCAR-4): 26.2 µM (inactive)
GI50 (CCRF-CEM): 28.2 µM (inactive)
GI50 (UACC-257): 29.4 µM (inactive)
GI50 (NCI-H522): 15.6 µM (inactive)
GI50 (XF498): 14.2 µM (inactive)
GI50 (LXFL 529): 32.4 µM (inactive)

O=C(c1ccc2c3c(ccc(C(=O)C(F)(F)F)c13)CC2)C(F)(F)F
GI50 (KM12): 44.1 µM (inactive)
GI50 (786-0): 57.5 µM (inactive)
GI50 (SR): 60.1 µM (inactive)
GI50 (NCI-H460): 69.8 µM (inactive)
GI50 (LOX IMVI): 55.7 µM (inactive)
GI50 (KM-20L2): 35.2 µM (inactive)
GI50 (HT-29): 52.1 µM (inactive)
GI50 (TK-10): 53 µM (inactive)
GI50 (U-251): 63.2 µM (inactive)
GI50 (SF-539): > 100 µM (inactive)
GI50 (SK-MEL-2): 97.5 µM (inactive)
GI50 (SW-620): > 100 µM (inactive)
GI50 (A549): 57.1 µM (inactive)
GI50 (DLD-1): 88.1 µM (inactive)
GI50 (NCI-H23): 43.3 µM (inactive)
GI50 (HOP-62): 72.1 µM (inactive)
GI50 (SF-268): 51.3 µM (inactive)
GI50 (SK-OV-3): > 100 µM (inactive)
GI50 (SN12C): 92.9 µM (inactive)
GI50 (HCT-116): 69.2 µM (inactive)
GI50 (RXF 393): 55.6 µM (inactive)
GI50 (UACC-62): 79.3 µM (inactive)
GI50 (SK-MEL-28): 62.2 µM (inactive)
GI50 (OVCAR-8): 47.5 µM (inactive)
GI50 (SNB-75): 29.4 µM (inactive)
GI50 (M19-MEL): 35.5 µM (inactive)
GI50 (COLO 205): 21.5 µM (inactive)
GI50 (HCC 2998): > 100 µM (inactive)
GI50 (MOLT-4): 61.4 µM (inactive)
GI50 (OVCAR-3): 69.8 µM (inactive)
GI50 (DMS-114): 41.4 µM (inactive)
GI50 (OVCAR-5): > 100 µM (inactive)
GI50 (CAKI-1): > 100 µM (inactive)
GI50 (UO-31): 43.2 µM (inactive)
GI50 (DMS-273): 27.9 µM (inactive)
GI50 (A498): 47.9 µM (inactive)
GI50 (SF-295): 44.6 µM (inactive)
GI50 (SNB-19): 86.7 µM (inactive)
GI50 (EKVX): 81.7 µM (inactive)
GI50 (M14): 34.4 µM (inactive)
GI50 (HOP-18): 53.2 µM (inactive)
GI50 (Malme-3M): 52.4 µM (inactive)
GI50 (IGROV-1): 74 µM (inactive)
GI50 (HCT-15): 58.7 µM
GI50 (ACHN): 58.9 µM (inactive)
GI50 (NCI-H226): > 100 µM (inactive)
GI50 (SNB-78): > 100 µM (inactive)
GI50 (HOP-92): 27 µM (inactive)
GI50 (OVCAR-4): 35.1 µM (inactive)
GI50 (UACC-257): 42.3 µM (inactive)
GI50 (NCI-H522): 29.8 µM (inactive)
GI50 (XF498): 9.31 µM (inactive)
GI50 (LXFL 529): 40.3 µM (inactive)

COC(=O)/C(=C1\OC(=O)C(c2ccc(Cl)cc2)=C1O)c1ccc(Cl)cc1
GI50 (KM12): 23.8 µM (inactive)
GI50 (786-0): 36.1 µM (inactive)
GI50 (SR): 25.8 µM (inactive)
GI50 (NCI-H460): 26.1 µM (inactive)
GI50 (LOX IMVI): 21.3 µM (inactive)
GI50 (KM-20L2): 28.6 µM (inactive)
GI50 (HT-29): 30 µM (inactive)
GI50 (TK-10): 31 µM (inactive)
GI50 (U-251): 24.3 µM (inactive)
GI50 (SF-539): 23.4 µM (inactive)
GI50 (SW-620): 35.7 µM (inactive)
GI50 (A549): 24.8 µM (inactive)
GI50 (DLD-1): 29.4 µM (inactive)
GI50 (NCI-H23): 16 µM (inactive)
GI50 (HOP-62): 17.7 µM (inactive)
GI50 (SF-268): 22.3 µM (inactive)
GI50 (SK-OV-3): 28.8 µM (inactive)
GI50 (SN12C): 30.5 µM (inactive)
GI50 (HCT-116): 19.8 µM (inactive)
GI50 (RXF 393): 21.5 µM (inactive)
GI50 (UACC-62): 17.9 µM (inactive)
GI50 (SK-MEL-28): 31 µM (inactive)
GI50 (OVCAR-8): 31.7 µM (inactive)
GI50 (SNB-75): 22.8 µM (inactive)
GI50 (M19-MEL): 22.1 µM (inactive)
GI50 (COLO 205): 18.9 µM (inactive)
GI50 (HCC 2998): 28.7 µM (inactive)
GI50 (MOLT-4): 22.5 µM (inactive)
GI50 (OVCAR-3): 27.8 µM (inactive)
GI50 (DMS-114): 15.8 µM (inactive)
GI50 (OVCAR-5): 31.5 µM (inactive)
GI50 (CAKI-1): 23 µM (inactive)
GI50 (UO-31): 28.7 µM (inactive)
GI50 (DMS-273): 13.2 µM (inactive)
GI50 (A498): 16.9 µM (inactive)
GI50 (SF-295): 19.2 µM (inactive)
GI50 (SNB-19): 27.7 µM (inactive)
GI50 (EKVX): 23.7 µM (inactive)
GI50 (M14): 31.2 µM (inactive)
GI50 (HOP-18): 21 µM (inactive)
GI50 (Malme-3M): 16.2 µM (inactive)
GI50 (IGROV-1): 52 µM (inactive)
GI50 (ACHN): 23.2 µM (inactive)
GI50 (K562): 27 µM (inactive)
GI50 (HL-60): 7.6 µM (inactive)
GI50 (NCI-H226): 21.8 µM (inactive)
GI50 (RPMI-8226): 19.6 µM (inactive)
GI50 (SNB-78): 26.4 µM (inactive)
GI50 (HOP-92): 17.8 µM (inactive)
GI50 (OVCAR-4): 9.71 µM (inactive)
GI50 (CCRF-CEM): 24.2 µM (inactive)
GI50 (UACC-257): 16.5 µM (inactive)
GI50 (NCI-H522): 17.2 µM (inactive)
GI50 (XF498): 16.9 µM (inactive)
GI50 (LXFL 529): 26.6 µM (inactive)
